Data on 3 molecules can be found in patent publication US11976074B1, “Crystalline salts of Linsitinib” (Sling Therapeutics, Inc., priority 2023, dated 2024).

Series [1] can be described thus: pH-solubility of linsitinib free base and selected salts (pH 1.5 to 6.5, overnight equilibration, HPLC). Conditions: for solubility: aqueous solution, thermodynamic from solid, overnight equilibration, read-out: Solubility; for Final pH: after overnight equilibration. It counts as physicochemical. As to the method: The pH-solubility of selected salts (Phosphate 1, L-Malate 1, Esylate 1, and Esylate 2) was evaluated and compared with linsitinib free base. The solubility analysis was conducted in a manner consistent with a previous study that was performed with linsitinib free base. Aqueous solutions were prepared between pH 1.5 and pH 6.5 in 0.5 pH unit increments via titration of the solution using NaOH and HCl. For each salt or the free base, an attempt was made to reach saturation in each of the solutions by adding sufficient material to the solution such that excess solids remained. If saturation was achieved, the pH of the solution was measured and adjusted to the target pH and additional material was added if needed. The samples were then equilibrated overnight. The final pH of the solution was measured, the solids were filtered and selected samples were analyzed by PXRD. The concentration of linsitinib in the filtrate was quantitated by HPLC (diluted as needed). In some cases, significant drift (+1 pH unit or more) of the final pH from the target pH was observed after the overnight equilibration.
The pH-solubility data is shown graphically in FIG. 89. […] Indeed, it should be noted that in the majority of the low pH systems, higher initial dissolution/solubility was observed followed by precipitation of the material from solution upon longer equilibration.

Series [2] in a line: Equilibrium solubility in bio-relevant media (FaSSGF pH 1.6, FaSSIF pH 6.5). Format: physicochemical. Conditions: for solubility: thermodynamic from solid, read-out: Solubility; for Solubility compared with the free base: in words. The source says:
In addition to the pH-solubility data, a comparison of the equilibrium solubility of linsitinib free base and salts in two bio-relevant media (Table 28), fasted state simulated gastric fluid (FaSSGF pH 1.6) and intestinal fluid (FaSSIF pH 6.5) was completed. […] A saturated solution of Esylate 1 was not achieved during this study and therefore the equilibrium solubility could be higher than determined. It should be noted that variability of almost a full pH unit was noted among the samples making a direct comparison more challenging.

For series [3] the following is noted: cited from earlier work.
For series [4] the following is noted: cited from earlier work. This is another data set of the same source.
A short description of series [5]: Heating experiments with selected malate samples. It counts as physicochemical. As to the method:
Based on the thermal data, Malate 4 and Malate 5 were heated at […] for 15 minutes. The solids were re-analyzed by PXRD after heating to investigate any form change upon dehydration. […] While there was an insufficient amount of sample to further characterize Malate 7, based on the conditions upon which it was generated, it could be a lower hydrate or an anhydrous form.

The nature of series [6]: Water activity boundary between malate forms. Format: physicochemical. The note with it: or 90% relative humidity. How it is done:
Malate 2, Malate 4, and Malate 5 were all obtained from high water activity conditions and are suspected to be hydrated forms. Based on the weight loss in the TG thermograms of Malate 4 and Malate 5, they could be di-hydrates. The water activity boundary between Malate 4 and Malate 1 was determined to be approximately 0.9 water activity, or 90% relative humidity. At a water activity of 0.8, Malate 1 was obtained; however, there were additional peaks present by PXRD. […]

Series [7] is described as follows: Thermogravimetric analysis (TGA). Format: physicochemical. The note with it: start to 65° C. How it is done:
The TG analysis was carried out using a TA Instruments […] Discovery Series instrument. The instrument balance was calibrated using class M weights and the temperature calibration was performed using alumel. The nitrogen purge was 10 mL per minute at the balance and 25 mL per minute at the furnace. The sample was placed into a pre-tared platinum pan and heated from approximately 25° C. to 300° C. at a rate of 10° C. per minute.

A short description of series [8]: Polymorph screen of linsitinib malate (PXRD/XRPD result). Format: physicochemical. Conditions: polymorph screen of linsitinib malate; slurry, cooling, precipitation or lyophilization; solvent and conditions per sample no.; listed as 4-10. As to the method:
A Rigaku SmartLab X-Ray Diffractometer was configured in Bragg-Brentano reflection geometry equipped with a beam stop and knife edge to reduce incident beam and air scatter.
A polymorph screen of linsitinib malate was conducted. Experiments were designed to target thermodynamically stable forms and therefore utilized techniques such as long-term slurry, cooling, anti-solvent addition, and evaporation. Reaction crystallization experiments with linsitinib free base and L-malic acid were also conducted. Additionally, non-crystalline material was used as an alternative starting material as this can provide access to polymorphs that would not be accessible from crystalline starting material.

[9] abbreviates: pH 4, aqueous buffer, target pH 4.0, * = clear solution, not equilibrium value.
Setting [10] is: pH 4.5, aqueous buffer, target pH 4.5, * = clear solution, not equilibrium value.
The mark [11] stands for this setting: pH 5, aqueous buffer, target pH 5.0.
Where [12] appears, read: pH 5.5, aqueous buffer, target pH 5.5.
Where [13] appears, read: pH 6, aqueous buffer, target pH 6.0.
The mark [14] stands for this setting: pH 6.5, aqueous buffer, target pH 6.5.
Setting [15] is: pH adjusted with NaOH and HCl, pH 1.5, aqueous buffer, target pH 1.5, * = clear solution, not equilibrium value.
Setting [16] is: pH adjusted with NaOH and HCl, pH 2, aqueous buffer, target pH 2.0, * = clear solution, not equilibrium value.
The mark [17] stands for this setting: pH adjusted with NaOH and HCl, pH 2.5, aqueous buffer, target pH 2.5, * = clear solution, not equilibrium value.
Setting [18] is: pH adjusted with NaOH and HCl, pH 3, aqueous buffer, target pH 3.0, * = clear solution, not equilibrium value.
Setting [19] is: pH adjusted with NaOH and HCl, pH 3.5, aqueous buffer, target pH 3.5, * = clear solution, not equilibrium value.
The mark [20] stands for this setting: fasted state simulated gastric fluid (FaSSGF), pH 1.6, fassgf or other biorelevant, FaSSGF (pH 1.6).
The mark [21] stands for this setting: fasted state simulated intestinal fluid (FaSSIF), pH 6.5, fassif, FaSSIF (pH 6.5).

In brackets after ≈: the same amount, converted by molar mass.

Turning to `C[C@]1(O)C[C@@H](c2nc(-c3ccc4ccc(-c5ccccc5)nc4c3)c3c(N)nccn32)C1` [Linsitinib free base, Cis-3-[8-amino-1-(2-phenyl-7-quinolinyl)imidazo[1,5-a]pyrazin-3-yl]-1-methyl-cyclobutanol, reference compound], the solubility in series [1] (setting [9]) was determined as 116 µg/mL; in series [1] (setting [10]), 5.1 µg/mL; in series [1] (setting [11]), 1.2 µg/mL; in series [1] (setting [12]) it was 1.7 µg/mL; in series [1] (setting [13]) it was 1 µg/mL; in series [1] (setting [14]), 1.2 µg/mL. The solubility in series [1] (setting [15]) is 54000 µg/mL; in series [1] (setting [16]), 23600 µg/mL; in series [1] (setting [17]), 17600 µg/mL; in series [1] (setting [18]) it was 15000 µg/mL; in series [1] (setting [19]), 1730 µg/mL; in series [2] (setting [20]) it was 7670 µg/mL (≈ 18.2 mM). In series [2] (setting [21]), the solubility was 25 µg/mL (≈ 0.0593 mM). The “Final pH” value was 1.52 in series [1] (target pH 1.5); 2.04 in series [1] (target pH 2.0); 2.33 in series [1] (target pH 2.5); 2.76 in series [1] (target pH 3.0); 3.64 in series [1] (target pH 3.5); 4.18 in series [1] (target pH 4.0). Moreover, the “Final pH” value in series [1] (target pH 4.5) stood at 5.54; in series [1] (target pH 5.0) it was 6.18; in series [1] (target pH 5.5) it was 6.43; in series [1] (target pH 6.0), 7.02; in series [1] (target pH 6.5), 6.43; in series [2] (FaSSGF (pH 1.6)) it was 4.04. The “Final pH” value in series [2] (FaSSIF (pH 6.5)) is 6.57. For the same molecule, in series [3] (anhydrous/non-solvated free base form), the Hygroscopicity entry is given as “non-hygroscopic”. Moreover, in series [3], the “Solubility under acidic conditions” value is recorded as “good solubility”. The Permeability result in series [4] is given as “good permeability”.
Take `C[C@]1(O)C[C@@H](c2nc(-c3ccc4ccc(-c5ccccc5)nc4c3)c3c(N)nccn32)C1.O=C(O)C[C@H](O)C(=O)O` [Malate 4]: the “XRPD result after heating” value in series [5] (92° C., 15 min) was “Malate 7”. In addition, in series [5] (heated for 15 minutes), the “Form change upon heating (PXRD)” value is recorded as “dehydrate to a new form, designated as Malate 7”. For the same molecule, the “Water activity boundary between Malate 4 and Malate 1” value in series [6] is on record as “approximately 0.9 water activity”. Also, the “TGA Results (weight loss)” value in series [7] was 7.3%, start to 65 °C. The “PXRD Results” value in series [8] is listed as “Malate 4”.
For `C[C@]1(O)C[C@@H](c2nc(-c3ccc4ccc(-c5ccccc5)nc4c3)c3c(N)nccn32)C1.O=C(O)C[C@H](O)C(=O)O` [L-Malate 1], the solubility in series [1] (setting [9]) turned out to be 1340 µg/mL; in series [1] (setting [10]), 337 µg/mL; in series [1] (setting [11]), 274 µg/mL; in series [1] (setting [12]), 192 µg/mL; in series [1] (setting [13]), 122 µg/mL; in series [1] (setting [14]), 16.5 µg/mL. The solubility in series [1] (setting [15]) is 82300 µg/mL; in series [1] (setting [16]) it was 74000 µg/mL; in series [1] (setting [17]) it was 39000 µg/mL; in series [1] (setting [18]) it was 15300 µg/mL; in series [1] (setting [19]) it was 4290 µg/mL; in series [2] (setting [20]), 8130 µg/mL. In series [2] (setting [21]), the solubility was 44 µg/mL. The “Solubility compared with the free base or Phosphate 1” value in series [1] (lower pH (<3)) is on record as “significantly higher solubility”. Further, the “Final pH” value is on record as 1.45 in series [1] (target pH 1.5); 2.02 in series [1] (target pH 2.0); 2.37 in series [1] (target pH 2.5); 2.80 in series [1] (target pH 3.0); 3.08 in series [1] (target pH 3.5); 3.38 in series [1] (target pH 4.0). For the same molecule, the “Final pH” value came out at 5.05 in series [1] (target pH 4.5); 5.16 in series [1] (target pH 5.0); 5.32 in series [1] (target pH 5.5); 5.50 in series [1] (target pH 6.0); 5.18 in series [1] (target pH 6.5); 2.97 in series [2] (FaSSGF (pH 1.6)). Also, in series [2] (FaSSIF (pH 6.5)), the “Final pH” value is given as 5.46. For the same molecule, the “Solubility compared with the free base” value in series [2] (FaSSGF (pH 1.6)) is recorded as “largely comparable”; in series [2] (FaSSIF (pH 6.5)), “higher solubility than the free base”. The “Water activity boundary between Malate 4 and Malate 1” value in series [6] was “approximately 0.9 water activity”.
